In one series the test system is whole blood clots. Briefly: Whole blood dosage (effective antifibrinolytic dosage, tPA-triggered clot lysis). The arrangement: species or system human. The settings on record: 10 µg/mL tPA, 37 °C. The method, then:
Blood was obtained by venipuncture from healthy donors after they signed an informed consent form. Blood was transferred into vacuum non-anticoagulant Vacutainer® tubes (BD, Franklin Lakes, NJ, USA). Blood samples were immediately used for the assay after extraction.
Glass tubes were prepared with 20 µL of a mixture of tPA, in a final concentration of 10 µg/mL, and the evaluated compounds, in a final concentration of 10, 20, 40, or 60 µM in Tris HCl buffer. A control clot was obtained with 20 µL of tPA with no compound. Then, 800 µL of blood was transferred to each tube and tubes were monitored for clot formation and lysis. The assay was performed with casual shaking. […] The ex vivo effective dosage for each compound was determined by their ability to inhibit complete clot degradation. Photographs were taken after 24 h of incubation.

For series [1], the target named is T1, tissue-type plasminogen activator (tPA) (Homo sapiens, UniProt P00750).
T1 construct: purchased abcam
T1 sequence (P00750 36-562): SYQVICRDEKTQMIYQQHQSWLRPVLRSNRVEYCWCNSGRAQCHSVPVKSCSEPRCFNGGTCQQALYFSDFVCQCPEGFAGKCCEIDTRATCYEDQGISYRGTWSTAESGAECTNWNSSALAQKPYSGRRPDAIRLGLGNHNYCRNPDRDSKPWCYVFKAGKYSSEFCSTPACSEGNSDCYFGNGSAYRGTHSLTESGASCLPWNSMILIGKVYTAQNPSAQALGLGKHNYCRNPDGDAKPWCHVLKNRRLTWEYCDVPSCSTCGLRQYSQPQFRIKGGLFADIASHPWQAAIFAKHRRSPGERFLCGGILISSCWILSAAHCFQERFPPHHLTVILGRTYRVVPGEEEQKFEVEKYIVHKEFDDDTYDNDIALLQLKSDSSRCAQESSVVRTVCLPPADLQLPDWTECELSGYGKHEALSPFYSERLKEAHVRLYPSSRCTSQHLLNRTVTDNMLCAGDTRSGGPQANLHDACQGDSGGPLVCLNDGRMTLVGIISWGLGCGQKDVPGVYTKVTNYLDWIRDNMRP
In words: tPA activity assay (chromogenic substrate). In kind it is biochemical. The method, then: Tris hydrochloride, 1M, pH = 7.5 solution (Thermo Fisher Scientific, Waltham, MA, USA) was used as buffer. […] Recombinant human Tissue Plasminogen Activator (abcam, Cambridge, UK) served as the source of tPA, and was stored at −20 °C until used.
The assay measures the inhibition of tPA’s catalytic domain by the tested compounds employing a chromogenic substrate. Different concentrations of the studied molecules were incubated with tPA in a 96-well plate at 37 °C for 10 min. […] After, 20 μL of tPA’s substrate was added to each well. […] The slope for each assay was obtained from the initial and final absorbance values and their respective time points, or until complete substrate cleavage was achieved. (3) Absorbance slope=Abs2−Abs1/t2−t1
The Relative tPA Inhibition for each condition was calculated using Equation (2). Then, the Relative tPA Activity (%) was calculated by subtracting the relative tPA inhibition of each concentration from the total activity of the enzyme, obtained from a control without a compound.

A further series can be described thus: in vivo. The settings on record: dog, iv, 5 mg/kg; for Morbidity / Mortality: 24 h. The method, then:
For the pharmacokinetic study in Beagle dogs, a total of 3 male and 3 female dogs were selected. They were acclimatized for 5 days before dosing and at the start of dosing, dogs were between 36 and 37 months old. […] Sterile water was also selected as a vehicle for injection of compound 5. […] A constant dose volume of 1 mL/kg body weight was administered, adjusted according to the most recently recorded body weight of each dog. A single dose of 5 mg/kg b. wt. was selected in the case of dogs.
Blood collection, plasma separation, and storage procedures were conducted following the same procedure as described for rats. Blood samples (600 µL) were collected from the cephalic vein of the forelimb for each dog. However, the concentration of compound 5 was determined using LC-MS/MS analysis. A column with identical characteristics to the one used in rats was employed, with a flow rate of 0.65 mL/min, a binary elution mode, and a run time of 6.0 min. Plasma samples were analyzed to determine the concentration of the active ingredient, and subsequently, the pharmacokinetic parameters were calculated. After a washout period of 7 days, dogs were returned back to stock.

Consider `O=c1[nH]nc(-c2cn(C3CCNCC3)nn2)o1` [compound 5], for which, in the series with whole blood clots, the “effective dosage (concentration preventing complete clot degradation after 24 h)” value stood at 10 µM. For the same molecule, in series [1] (0.5 mM), the “percentage of tPA's activity” value was found to be 93.70%. Further, the “percentage of tPA's activity” value in series [1] (1 mM) is 91.18%. The “percentage of tPA's activity” value in series [1] (5 mM) came out at 88.78%. Also, the “percentage of tPA's activity” value in series [1] (10 mM) turned out to be 89.39%. Moreover, the “percentage of tPA's activity” value in series [1] (15 mM) is reported as 103.70%. Besides, the “activity on tPA's active site” value in series [1] (at the tested concentrations) is on record as “no activity”. In “in vivo” (female, Beagle), the “Clinical signs observed: N of dogs with Mild vomiting” value came out at 1, the peak concentration (Cmax) (commonly the highest concentration seen after dosing) was determined as 15800 ng/mL, the Kel came out at 0.23 h‐1 and the Tmax (usually the time from dosing to the highest level) is 4.8 min. Moreover, in “in vivo” (female, Beagle), the half-life (usually the time in which the quantity being followed falls by half) was 3.04 h, the Morbidity is reported as 0 number of dogs and the Mortality is given as 0 number of dogs. Besides, in the series “in vivo” (male, Beagle), the “Clinical signs observed: N of dogs with Mild vomiting” value is 1, the maximum concentration (Cmax) amounted to 14000 ng/mL, the Kel turned out to be 0.24 h‐1 and the Tmax was 4.8 min. For the same molecule, in the series “in vivo” (male, Beagle), the half-life is 2.88 h. Besides, in “in vivo” (male, beagle), the Morbidity is 0 number of dogs and the Mortality is 0 number of dogs.

The record behind these values is article PMC11241262, “Unravelling the Antifibrinolytic Mechanism of Action of the 1,2,3-Triazole Derivatives” (International Journal of Molecular Sciences, 2024).
